Measured values taken from publication PMC3422259, “Additive Mixture Effects of Estrogenic Chemicals in Human Cell-Based Assays Can Be Influenced by Inclusion of Chemicals with Differing Effect Profiles” (PLoS ONE, 2012).
Like-named read-outs stand apart in the source and are kept apart here.

Key:
MCF-7 cells = assay: Estrogenicity assay, mitogenic endpoint (ESCREEN); parameters: Emax: dose or concentration left out as unconfirmed
Experimental: The ESCREEN assay was performed using cloned MCF-7 cells (described in [6], gifted from A. Soto, Boston) and the established ESCREEN method was followed using an adapted 96-well format. Cells were cultured in DMEM (5% FCS). For experiments, cells were seeded in clear polystyrene 96 well plates at a density of 2,500 cells/well and allowed to attach for 24 hours before washing with rinse media (phenol red-free DMEM, no supplements). […] Test chemicals were dissolved in ethanol to give stock solutions of millimolar concentrations. Test and control solutions were diluted prior to application in dosing media (phenol red free DMEM, 10% charcoal-dextran stripped FCS). The final concentration of ethanol was 0.5% in test and control wells. […] At all stages, media removal from cells was carried out gently and in a controlled fashion by use of an electronic multichannel pipette set to the lowest speed possible. Controls were run as eight replicate wells per plate and compounds were tested in a dilution series comprising eight concentrations, each concentration tested in two replicate wells per plate. The plate layout was designed to reduce variation due to evaporation and spreading of test chemicals, and had been previously optimised in the laboratory. After application of test solutions, plates were incubated for 120 hours before fixation with 10% trichloroacetic acid and sulforhodamine B (SRB) staining to measure protein and allow the indirect quantification of cell number.
(§1) Experiments were performed on different days meaning that results for different dilution series and different batches of the test chemicals were obtained on different days. Each single chemical was tested in three or more independent experiments. Use of normalisation meant that data from different experiments could be reliably combined and compared, as discussed previously. Data was expressed relative to the positive control, rather than as fold change from the vehicle response, for two reasons.
(§2) Results from regression analysis for each test chemicals were used to predict the CA effect for fixed-ratio mixtures designed on 1) equi-effective concentrations (balanced design), 2) possible human serum levels (non-balanced design). The original mathematical formulation of CA that defines for a mixture composed of n components with concentration c1 of the first component, c2 of the second component, and cn for the n-th component a combination effect X is [drawing 1] (1) Here, ECX1, ECX1 …, ECXn are the concentrations of the individual components that on their own produce the same effect X as the mixture, [15] The quotients cn/ECXn are called toxic units and scale all compounds in the mixture relative to their toxicity. They can be interpreted as the contribution of the compound to the total mixture concentration that is expected to produce the mixture effect X. According to equation 1, a mixture effect for a pre-defined effect level X is described only implicitly. However, if the individual concentrations ci are expressed as relative fractions pi to the total mixture concentration ECxMix, then equation 1 can be re-arranged to [drawing 2] (2) which allows the direct calculation of the mixture concentration that is expected to produce the mixture effect X. To form a prediction curve, equation 2 is iterated through for various effect levels resulting in sets of effects and their associated predicted mixture concentration which are then plotted to produce a graph of the effect prediction.
Both equations 1 and 2 require knowledge of the concentration of each mixture component that on its own produces the effect magnitude under consideration. For this reason, these equations cannot be used for predicting mixture effects that exceed the maximal effect of the least efficacious component, because those effect concentrations cannot be defined.

T47D-KBluc cells = assay: cells; parameters: Emax: dose or concentration left out as unconfirmed
Experimental: T47D-KBluc cells were obtained from the ATCC and the protocol established by the depositing authors was followed. Cells were routinely grown in RPMI media (with 10% foetal calf serum (FCS)). For seven days prior to experiments, cells were maintained in low estrogen conditions by the use of pre-assay media (RPMI, 10% charcoal-dextran stripped FCS, no antibiotics). For experiments, cells were seeded in white polystyrene 96 well plates at a density of 10,000 cells/well and allowed to attach for 24 hours before removal of media, and application of test chemicals. Test chemicals were dissolved in ethanol to give stock solutions of millimolar concentrations. Test and control solutions were obtained by dilution of ethanolic stocks in dosing media (phenol red-free RPMI, 5% charcoal-dextran stripped FCS, no antibiotics), and in all cases the final concentration of ethanol was 0.5%. The positive control was 1 nM estradiol. Positive and vehicle controls were run as eight replicate wells per plate, and compounds were tested in a dilution series comprising eight concentrations, each concentration tested in triplicate. As recommended by Wilson et al. two additional controls were also included on each plate: 1) vehicle control plus an antiestrogen, ICI 182,780 (1 µM), and 2) positive control plus ICI 182,780 (1 µM). […] A crude measure of toxicity was provided by comparing values for treatments that were not positive, with the value of the vehicle control. […] 24 hours after application of test and control solutions, a volume of Steady-Glo assay reagent (Promega) equal to the volume of culture media was added and plates were incubated for ten minutes, with shaking, to allow for cell lysis. Plates were then loaded into a plate reader (FLUOstar Optima, BMG Labtech) and incubated for a further ten minutes in the dark, followed by measurement of luminescence. To reduce variation, the temperature of the plate reader chamber was maintained at 27°C throughout.
as §1
Effect concentrations (ECx) were defined relative to the effects of the estradiol concentration used as the positive control, for example EC50 is the concentration producing an effect of 50% of the positive control (estradiol, 1 nM (ERLUX) or 25 nM (ESCREEN)).
as §2, with “implicitly.” for “implicitly. However, if the individual concentrations ci are expressed as relative fractions pi to the total mixture concentration ECxMix, then equation 1 can be re-arranged to [drawing 2] (2) which allows the direct calculation of the mixture concentration that is expected to produce the mixture effect X. To form a prediction curve, equation 2 is iterated through for various effect levels resulting in sets of effects and their associated predicted mixture concentration which are then plotted to produce a graph of the effect prediction.”

[1] = Homo sapiens, MCF7, read-out: Concentration Response Function θ^∧ max
[2] = Homo sapiens, read-out: Concentration Response Function θ^∧ max
[3] = Homo sapiens, read-out: Supramaximal response, of estradiol maxima
[4] = Homo sapiens, MCF7, read-out: Maxima at effect levels relative to that of estradiol (submaximal response)

Compound	EC10 (MCF-7 cells; Homo sapiens, MCF7, 120 h)	EC25 (MCF-7 cells; Homo sapiens, MCF7, 120 h)	Emax (MCF-7 cells; [1])	EC10 (T47D-KBluc cells; Homo sapiens, 24 h)	EC25 (T47D-KBluc cells; Homo sapiens, 24 h)	Emax (T47D-KBluc cells; [2])	EC10 (MCF-7 cells; ESCREEN, concentration provoking 10% effect relative to positive control 25 nM estradiol, 120 hours)	EC25 (MCF-7 cells; ESCREEN, concentration provoking 25% effect relative to positive control 25 nM estradiol, 120 hours)	Concentration Response Function θ^∧ max (MCF-7 cells; ESCREEN, estimated maximal model asymptote, effect relative to positive control (25 nM estradiol))	EC10 (T47D-KBluc cells; ERLUX, concentration producing 10% effect relative to positive control 1 nM estradiol, 24 hours)	EC25 (T47D-KBluc cells; ERLUX, concentration producing 25% effect relative to positive control 1 nM estradiol, 24 hours)	Concentration Response Function θ^∧ max (T47D-KBluc cells; ERLUX, estimated maximal model asymptote, effect relative to positive control (1 nM estradiol))	Emax (T47D-KBluc cells; [3])	Emax (MCF-7 cells; [4])
CCCOC(=O)c1ccc(O)cc1 [Propylparaben]	997 nM	2160 nM	109%	1300 nM	2210 nM	260%	–	–	–	–	–	–	–	–
O=C1C[C@@H](c2ccc(O)cc2)Oc2cc(O)cc(O)c21 [Naringenin]	360 nM	833 nM	110%	310 nM	506 nM	114%	–	–	–	–	–	–	–	–
C#C[C@]1(O)CC[C@H]2[C@@H]3CCc4cc(O)ccc4[C@H]3CC[C@@]21C [EE2, Ethinyl estradiol, reference compound]	0.000635 nM	0.00181 nM	114%	0.000651 nM	0.00132 nM	105%	–	–	–	–	–	–	–	–
Tonalide (AHTN)	–	–	–	–	–	–	1970 nM	6130 nM	0.46	3610 nM	206000 nM	0.28	–	–
OC[C@H](Cc1cccc(O)c1)[C@H](CO)Cc1cccc(O)c1 [Enterodiol]	3850 nM	7450 nM	45%	–	–	–	–	–	–	–	–	–	–	–
CC1COCc2cc3c(cc21)C(C)(C)C(C)C3(C)C (centres unmarked) [Galaxolide, Galaxolide (HHCB)]	5390 nM	12300 nM	69%	3930 nM	7730 nM	91%	–	–	–	–	–	–	–	–
CCCCOC(=O)c1ccc(O)cc1 [Butylparaben]	571 nM	1320 nM	101%	497 nM	881 nM	331%	–	–	–	–	–	–	300%	–
COc1ccc(C(=O)c2ccccc2)c(O)c1 [Benzophenone-3]	1300 nM	4310 nM	63%	2270 nM	4610 nM	177%	–	–	–	–	–	–	150%	60 to 70%
O=c1oc2cc(O)ccc2c2oc3cc(O)ccc3c12 [Coumestrol]	1.56 nM	5 nM	131%	1.58 nM	3.42 nM	101%	–	–	–	–	–	–	–	–
C[C@]12CC[C@@H]3c4ccc(O)cc4CC[C@H]3[C@@H]1CC[C@@H]2O [Estradiol, reference compound]	0.00112 nM	0.00312 nM	133%	0.000653 nM	0.00145 nM	123%	–	–	–	–	–	–	–	–
Cc1ccc(/C=C2/C(=O)C3(C)CCC2C3(C)C)cc1 (centres unmarked) [4MBC, 4-methylbenzylidene camphor]	899 nM	2210 nM	63%	1810 nM	5000 nM	82%	–	–	–	–	–	–	–	60 to 70%
COC(=O)c1ccc(O)cc1 [Methylparaben]	7640 nM	18000 nM	79%	8140 nM	17100 nM	206%	–	–	–	–	–	–	–	–
CC(C)(c1ccc(O)cc1)c1ccc(O)cc1 [Bisphenol A]	45.2 nM	81.8 nM	121%	155 nM	258 nM	144%	–	–	–	–	–	–	150%	–
O=c1c(-c2ccc(O)cc2)coc2cc(O)cc(O)c12 [Genistein]	4.61 nM	13.6 nM	93%	12.4 nM	19.6 nM	148%	–	–	–	–	–	–	200%	–
c1ccc2c(c1)-c1cccc3cccc-2c13 [Fluoranthene]	33900 nM	88500 nM	38%	60000 nM	–	16%	–	–	–	–	–	–	–	–
O=C1OC[C@H](Cc2cccc(O)c2)[C@H]1Cc1cccc(O)c1 [Enterolactone]	4150 nM	7220 nM	139%	3770 nM	8180 nM	104%	–	–	–	–	–	–	–	–
Brc1ccc(Oc2c(Br)cc(Br)cc2Br)c(Br)c1 [BDE100, Brominated diphenyl ether-100]	704 nM	2410 nM	71%	5360 nM	12800 nM	172%	–	–	–	–	–	–	–	–
